Each molecule was assayed against T1, HIF-2α (Homo sapiens, UniProt Q99814) (assay: VEGF ELISA Assay). Settings: VEGF expression in 786-0 cells; VEGF in culture medium by ELISA; four parameter dose-response fit.
T1 construct: endogenous in cells; host or cells: 786-0 cells
Type: cell-based
Method: The ability of the disclosed compounds to inhibit HIF-2α was measured by determining VEGF expression in 786-0 cells. About 7500 786-0 cells were seeded into each well of a 96-well, white, clear bottom plate (07-200-566, Fisher Scientific) with 200 ul growth medium. Four hours later, compounds were dispensed into wells by Tecan D300e digital dispenser with starting concentration of 10 uM and […] of dilution down to 1 nM as final concentration. Each concentration of treatment was performed in duplicate. About 20 hours later, medium was removed and fresh medium was added, followed by compounds treatment as described above. 24 hours later, cell culture medium was collected to determine VEGF concentration using an ELISA kit (R&D systems, cat #DVE00) following the manufacturer's instruction.
The EC50 is calculated by GraphPad Prism using the dose-response-inhibition (four parameter) equation. The plate with cells was then subjected to CellTiter-Glo luminescence cell viability assay (Promega) to determine the effect of these compounds on cell numbers after the above treatment.

T1 sequence (Q99814 whole entry): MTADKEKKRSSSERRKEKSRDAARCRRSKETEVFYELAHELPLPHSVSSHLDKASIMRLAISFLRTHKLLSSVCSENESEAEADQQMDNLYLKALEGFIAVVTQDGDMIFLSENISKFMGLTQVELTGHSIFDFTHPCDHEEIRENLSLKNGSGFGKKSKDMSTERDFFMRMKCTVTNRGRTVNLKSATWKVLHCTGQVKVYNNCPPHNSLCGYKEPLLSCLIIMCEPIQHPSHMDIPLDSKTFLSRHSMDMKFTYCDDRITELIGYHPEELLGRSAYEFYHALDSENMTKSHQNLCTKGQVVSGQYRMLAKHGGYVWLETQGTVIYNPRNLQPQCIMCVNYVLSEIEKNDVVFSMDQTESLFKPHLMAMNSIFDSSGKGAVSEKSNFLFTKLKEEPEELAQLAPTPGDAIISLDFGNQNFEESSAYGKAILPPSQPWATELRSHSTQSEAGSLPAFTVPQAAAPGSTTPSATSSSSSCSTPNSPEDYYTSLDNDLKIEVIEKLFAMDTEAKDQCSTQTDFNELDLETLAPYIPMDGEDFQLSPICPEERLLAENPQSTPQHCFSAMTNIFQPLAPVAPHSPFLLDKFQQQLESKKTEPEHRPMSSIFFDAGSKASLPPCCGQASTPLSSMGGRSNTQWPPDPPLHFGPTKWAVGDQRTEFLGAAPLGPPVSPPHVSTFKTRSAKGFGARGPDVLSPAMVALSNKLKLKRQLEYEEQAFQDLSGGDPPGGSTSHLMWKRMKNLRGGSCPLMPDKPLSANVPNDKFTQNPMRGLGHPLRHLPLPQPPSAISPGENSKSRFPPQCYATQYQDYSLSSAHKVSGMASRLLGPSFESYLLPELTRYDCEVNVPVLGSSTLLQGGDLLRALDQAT

Point of comparison: `CC1CCC2(O)c3c(ccc(Oc4cc(F)cc(C#N)c4)c31)C(F)(F)C2(F)F` (single isomer, unassigned) [the other of 7-1 and 7-2], EC50 3050 nM. Against it:
- N#Cc1cc(F)cc(Oc2ccc3c4c2CCC[C@]4(O)C(F)(F)C3(F)F)c1 [Compound 2, (R)-3-fluoro-5-((1,1,2,2-tetrafluoro-8a-hydroxy-1,2,6,7,8,8a-hexahydroacenaphthylen-5-yl)oxy)benzonitrile] — 510-fold lower, 6 nM
- CC1CCC2(O)c3c(ccc(Oc4cc(F)cc(C#N)c4)c31)C(F)(F)C2(F)F (single isomer, unassigned) [one of 7-1 and 7-2] — 8.2-fold lower, 372 nM
- C=C1CCC2(O)c3c(ccc(Oc4cc(F)cc(C#N)c4)c31)C(F)(F)C2(F)F (stereo not drawn) [Compound 3, 3-fluoro-5-((1,1,2,2-tetrafluoro-8a-hydroxy-6-methylene-1,2,6,7,8,8a-hexahydroacenaphthylen-5-yl)oxy)benzonitrile] — 5.7-fold lower, 534 nM
- N#Cc1cc(F)cc(Oc2ccc3c4c2C(F)C(F)(F)CC4(O)C(F)(F)C3(F)F)c1 (stereo not drawn) [8-1 or 8-2] — 130-fold lower, 23 nM
- N#Cc1cc(F)cc(Oc2ccc3c4c2CCCC4(O)C(F)(F)C3(F)F)c1 (stereo not drawn) [Compound 1, 3-fluoro-5-((1,1,2,2-tetrafluoro-8a-hydroxy-1,2,6,7,8,8a-hexahydroacenaphthylen-5-yl)oxy)benzonitrile] — 82-fold lower, 37 nM
